Test system: 494315-158-R-J1-PDC complex spheroid growth, percent test/control
Test: Anticancer human tumor 494315-158-R-J1-PDC patient-derived soft tissue sarcoma cell line growth inhibition [Asc]
Details: for IC50: curve of first compound; for viability, T/C: stronger effect = lower value
Method in brief: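 Tumor cells were grown as multicellular spheroids with stromal HUVEC and mesenchymal stem cells and treated singly or in combination. Concentrations fell in half-log steps from the clinical Cmax, or from 10 microM where none was known.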

[1] = second compound 0.1 µM, first compound 0.0316 µM
[2] = second compound 0.1 µM, first compound 0.1 µM
[3] = second compound 0.1 µM, first compound 0.316 µM
[4] = second compound 0.1 µM, first compound 1 µM
[5] = second compound 0.316 µM, first compound 0.0316 µM
[6] = second compound 0.316 µM, first compound 0.1 µM
[7] = second compound 0.316 µM, first compound 0.316 µM
[8] = second compound 0.316 µM, first compound 1 µM
[9] = second compound 1 µM, first compound 0.0316 µM
[10] = second compound 1 µM, first compound 0.1 µM
[11] = second compound 1 µM, first compound 0.316 µM
[12] = second compound 1 µM, first compound 1 µM
[13] = second compound 3.16 µM, first compound 0.0316 µM
[14] = second compound 3.16 µM, first compound 0.1 µM
[15] = second compound 3.16 µM, first compound 0.316 µM
[16] = second compound 3.16 µM, first compound 1 µM
[17] = second compound 10 µM, first compound 0.0316 µM
[18] = second compound 10 µM, first compound 0.1 µM
[19] = second compound 10 µM, first compound 0.316 µM
[20] = second compound 10 µM, first compound 1 µM
[21] = second compound 0.1 µM, first compound 0.00316 µM
[22] = second compound 0.1 µM, first compound 0.01 µM
[23] = second compound 0.316 µM, first compound 0.00316 µM
[24] = second compound 0.316 µM, first compound 0.01 µM
[25] = second compound 1 µM, first compound 0.00316 µM
[26] = second compound 1 µM, first compound 0.01 µM
[27] = second compound 3.16 µM, first compound 0.00316 µM
[28] = second compound 3.16 µM, first compound 0.01 µM
[29] = second compound 10 µM, first compound 0.00316 µM
[30] = second compound 10 µM, first compound 0.01 µM
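Further: compound exposure lasted seven days after spheroids formed for three days.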

## C=CC(=O)N1CCN(c2nc(=O)n(-c3c(C)ccnc3C(C)C)c3nc(-c4c(O)cccc4F)c(F)cc23)C(C)C1 (stereo not given) + Cc1c(S(C)(=O)=O)c(-c2cc(F)cc(N3CCN(c4ccc(NS(=O)(=O)c5ccc(NC(CCN6CCC(C(=O)OCCCP(=O)(O)O)CC6)CSc6ccccc6)c(S(=O)(=O)C(F)(F)F)c5)cc4)CC3)c2)c(-c2ccc(Cl)cc2)n1C(C)C
Second compound 0.1 µM
  IC50: > 10000 nM
Second compound 0.316 µM
  IC50: > 10000 nM
Second compound 1 µM
  IC50: > 10000 nM
Second compound 3.16 µM
  IC50: > 10000 nM
Second compound 10 µM
  IC50: > 10000 nM
[1]
  viability, T/C: 101%
[2]
  viability, T/C: 84.5%
[3]
  viability, T/C: 88.9%
[4]
  viability, T/C: 100%
Second compound 0.1 µM, first compound 3.16 µM
  viability, T/C: 108%
Second compound 0.1 µM, first compound 10 µM
  viability, T/C: 91.7%
[5]
  viability, T/C: 67.4%
[6]
  viability, T/C: 75.3%
[7]
  viability, T/C: 72.2%
[8]
  viability, T/C: 89.9%
Second compound 0.316 µM, first compound 3.16 µM
  viability, T/C: 80%
Second compound 0.316 µM, first compound 10 µM
  viability, T/C: 78.3%
[9]
  viability, T/C: 86.4%
[10]
  viability, T/C: 63.5%
[11]
  viability, T/C: 74.1%
[12]
  viability, T/C: 79.3%
Second compound 1 µM, first compound 3.16 µM
  viability, T/C: 84%
Second compound 1 µM, first compound 10 µM
  viability, T/C: 66%
[13]
  viability, T/C: 61.1%
[14]
  viability, T/C: 60.2%
[15]
  viability, T/C: 69.5%
[16]
  viability, T/C: 79.9%
Second compound 3.16 µM, first compound 3.16 µM
  viability, T/C: 81.4%
Second compound 3.16 µM, first compound 10 µM
  viability, T/C: 60.9%
[17]
  viability, T/C: 81.3%
[18]
  viability, T/C: 84.5%
[19]
  viability, T/C: 92.8%
[20]
  viability, T/C: 90.1%
Second compound 10 µM, first compound 3.16 µM
  viability, T/C: 98.5%
Second compound 10 µM, first compound 10 µM
  viability, T/C: 67.3%

## COc1c(OCCCN2CCOCC2)ccc2c3n(c(=NC(=O)c4cnc(N)nc4)nc12)CCN3 + Cc1c(S(C)(=O)=O)c(-c2cc(F)cc(N3CCN(c4ccc(NS(=O)(=O)c5ccc(NC(CCN6CCC(C(=O)OCCCP(=O)(O)O)CC6)CSc6ccccc6)c(S(=O)(=O)C(F)(F)F)c5)cc4)CC3)c2)c(-c2ccc(Cl)cc2)n1C(C)C
Second compound 0.1 µM
  IC50: 37.8 nM
Second compound 0.316 µM
  IC50: 14.7 nM
Second compound 1 µM
  IC50: 16.5 nM
Second compound 3.16 µM
  IC50: 3.18 nM
Second compound 10 µM
  IC50: 9.27 nM
[21]
  viability, T/C: 69.7%
[22]
  viability, T/C: 60.7%
[1]
  viability, T/C: 55.6%
[2]
  viability, T/C: 29.8%
[3]
  viability, T/C: 18%
[4]
  viability, T/C: 12.9%
[23]
  viability, T/C: 67.6%
[24]
  viability, T/C: 56.1%
[5]
  viability, T/C: 37.6%
[6]
  viability, T/C: 32.1%
[7]
  viability, T/C: 15.8%
[8]
  viability, T/C: 11.1%
[25]
  viability, T/C: 68.3%
[26]
  viability, T/C: 58%
[9]
  viability, T/C: 39.5%
[10]
  viability, T/C: 26.6%
[11]
  viability, T/C: 14%
[12]
  viability, T/C: 10.7%
[27]
  viability, T/C: 49.7%
[28]
  viability, T/C: 45%
[13]
  viability, T/C: 32.7%
[14]
  viability, T/C: 21.4%
[15]
  viability, T/C: 12.5%
[16]
  viability, T/C: 8.31%
[29]
  viability, T/C: 69.3%
[30]
  viability, T/C: 49%
[17]
  viability, T/C: 31.2%
[18]
  viability, T/C: 21.1%
[19]
  viability, T/C: 12.8%
[20]
  viability, T/C: 9.05%

## NC(=O)C(=Cn1cnc(-c2cc(C(F)(F)F)cc(C(F)(F)F)c2)n1)c1cncnc1 + Cc1c(S(C)(=O)=O)c(-c2cc(F)cc(N3CCN(c4ccc(NS(=O)(=O)c5ccc(NC(CCN6CCC(C(=O)OCCCP(=O)(O)O)CC6)CSc6ccccc6)c(S(=O)(=O)C(F)(F)F)c5)cc4)CC3)c2)c(-c2ccc(Cl)cc2)n1C(C)C
Second compound 0.1 µM
  IC50: 23.2 nM
Second compound 0.316 µM
  IC50: 12.4 nM
Second compound 1 µM
  IC50: 6.67 nM
Second compound 3.16 µM
  IC50: 3.19 nM
Second compound 10 µM
  IC50: 10.1 nM
Second compound 0.1 µM, first compound 0.000949 µM
  viability, T/C: 79.5%
Second compound 0.1 µM, first compound 0.003 µM
  viability, T/C: 82.6%
Second compound 0.1 µM, first compound 0.00949 µM
  viability, T/C: 66.8%
Second compound 0.1 µM, first compound 0.03 µM
  viability, T/C: 44.9%
Second compound 0.1 µM, first compound 0.0949 µM
  viability, T/C: 19.2%
Second compound 0.1 µM, first compound 0.3 µM
  viability, T/C: 6.1%
Second compound 0.316 µM, first compound 0.000949 µM
  viability, T/C: 72.7%
Second compound 0.316 µM, first compound 0.003 µM
  viability, T/C: 65.4%
Second compound 0.316 µM, first compound 0.00949 µM
  viability, T/C: 51.3%
Second compound 0.316 µM, first compound 0.03 µM
  viability, T/C: 40.7%
Second compound 0.316 µM, first compound 0.0949 µM
  viability, T/C: 23.2%
Second compound 0.316 µM, first compound 0.3 µM
  viability, T/C: 4.23%
Second compound 1 µM, first compound 0.000949 µM
  viability, T/C: 53.7%
Second compound 1 µM, first compound 0.003 µM
  viability, T/C: 57.8%
Second compound 1 µM, first compound 0.00949 µM
  viability, T/C: 46.2%
Second compound 1 µM, first compound 0.03 µM
  viability, T/C: 35.1%
Second compound 1 µM, first compound 0.0949 µM
  viability, T/C: 16.3%
Second compound 1 µM, first compound 0.3 µM
  viability, T/C: 4.03%
Second compound 3.16 µM, first compound 0.000949 µM
  viability, T/C: 52.2%
Second compound 3.16 µM, first compound 0.003 µM
  viability, T/C: 52.2%
Second compound 3.16 µM, first compound 0.00949 µM
  viability, T/C: 41.8%
Second compound 3.16 µM, first compound 0.03 µM
  viability, T/C: 24%
Second compound 3.16 µM, first compound 0.0949 µM
  viability, T/C: 12.9%
Second compound 3.16 µM, first compound 0.3 µM
  viability, T/C: 2.93%
Second compound 10 µM, first compound 0.000949 µM
  viability, T/C: 67.4%
Second compound 10 µM, first compound 0.003 µM
  viability, T/C: 58%
Second compound 10 µM, first compound 0.00949 µM
  viability, T/C: 54.7%
Second compound 10 µM, first compound 0.03 µM
  viability, T/C: 29.2%
Second compound 10 µM, first compound 0.0949 µM
  viability, T/C: 14.8%
Second compound 10 µM, first compound 0.3 µM
  viability, T/C: 2.12%

## NC1CCC(NC2CC2c2ccccc2)CC1 (stereo not given) + Cc1c(S(C)(=O)=O)c(-c2cc(F)cc(N3CCN(c4ccc(NS(=O)(=O)c5ccc(NC(CCN6CCC(C(=O)OCCCP(=O)(O)O)CC6)CSc6ccccc6)c(S(=O)(=O)C(F)(F)F)c5)cc4)CC3)c2)c(-c2ccc(Cl)cc2)n1C(C)C
Second compound 0.1 µM
  IC50: > 100 nM
Second compound 0.316 µM
  IC50: > 100 nM
Second compound 1 µM
  IC50: 9.33 nM
Second compound 3.16 µM
  IC50: 0.337 nM
Second compound 10 µM
  IC50: > 100 nM
Second compound 0.1 µM, first compound 0.000316 µM
  viability, T/C: 72.5%
Second compound 0.1 µM, first compound 0.001 µM
  viability, T/C: 71.3%
[21]
  viability, T/C: 78.8%
[22]
  viability, T/C: 68.5%
[1]
  viability, T/C: 74.6%
[2]
  viability, T/C: 72.9%
Second compound 0.316 µM, first compound 0.000316 µM
  viability, T/C: 56.4%
Second compound 0.316 µM, first compound 0.001 µM
  viability, T/C: 61.5%
[23]
  viability, T/C: 61%
[24]
  viability, T/C: 57.6%
[5]
  viability, T/C: 64.5%
[6]
  viability, T/C: 61.8%
Second compound 1 µM, first compound 0.000316 µM
  viability, T/C: 53.3%
Second compound 1 µM, first compound 0.001 µM
  viability, T/C: 67.5%
[25]
  viability, T/C: 61.7%
[26]
  viability, T/C: 47.9%
[9]
  viability, T/C: 44.4%
[10]
  viability, T/C: 55.6%
Second compound 3.16 µM, first compound 0.000316 µM
  viability, T/C: 49.9%
Second compound 3.16 µM, first compound 0.001 µM
  viability, T/C: 47.4%
[27]
  viability, T/C: 43.6%
[28]
  viability, T/C: 43%
[13]
  viability, T/C: 39.8%
[14]
  viability, T/C: 47.5%
Second compound 10 µM, first compound 0.000316 µM
  viability, T/C: 58%
Second compound 10 µM, first compound 0.001 µM
  viability, T/C: 58.6%
[29]
  viability, T/C: 57.9%
[30]
  viability, T/C: 57.6%
[17]
  viability, T/C: 57.1%
[18]
  viability, T/C: 56%

— PubChem BioAssay AID1963420 (Molecular Pharmacology Branch, DTP, NCI, 2024)
